Reference: US20260123654A1, “METHOD FOR IMPROVING THE BIOAVAILABILITY OF FUNCTIONAL FOOD PRODUCTS” (priority 2022, published 2026)

How the values were obtained:
[1] = Triacylglycerols (TAG) content in rat serum after bolus intragastric administration of olive oil; assay type: in vivo, Wistar rats; settings: 1, 2, and 3 hours after bolus intragastric administration of olive oil; xenon 280 vol. %, krypton 24 vol. %
Experimental: Studies on the effect of xenon on the absorption and transport of triacylglycerols were carried out in an experiment as described [Wang Z., Wang L., Zhang Z., Feng L., Song X., & Wu J. Apolipoprotein A-IV involves in glucose and lipid metabolism of rat//Nutrition & metabolism.-2019.-T. 16.- ? 1.-P. 1-9.], were performed on 12 Wistar rats weighing 320-360 g.
All animals were divided into 3 groups: 1-control, 2-experimental, 3-experimental. The animals were fasted for 6 hours before the experiment, and then rats of the control group (n=4) were injected intragastrically with bolus Extra Virgin olive oil (Aceites Toledo, Spain) at a dose of 1 ml/100 g body weight. […]
An introduction of gases into the oils was carried out using an emulsion production reactor with a volume of 11. […] A content of xenon and krypton in the oil was determined by a gas chromatography method. […]
Triacylglycerols (TAG) content was immediately determined in blood serum using enzyme kits from Chronolab (Spain). For this purpose, 10 μl of serum or standard TAG solution was added to 1 ml of a working reagent, incubated for 5 min at […] in a thermostat and an optical density at 500 nm was determined on a spectrophotometer.

[2] = Omega-3 index in male volunteers after intake of capsules; assay type: in vivo; settings: xenon 5-250 vol. %, krypton 5-70 vol. % in Epax 5025 TGN
Experimental: Testing was carried out on 14 male volunteers, age from 38 to 47 years. Control and 5 experimental groups of 2 people each. […] For testing the control group, the product used was Epax Ultra Concentrates (Epax 5025 TGN), manufactured by Epax Norway AS. For experimental group 1 xenon was introduced into the product in concentration of 5 vol. %; for experimental group 2-20 vol. %; for experimental group 3-250 vol. %; for experimental group 4-krypton-5 vol. %; for experimental group 5-24 vol. %; for experimental group 6-70 vol. %. A product saturation with gases was done as described above, but at a small overpressure: krypton at 2.0 mPa, and xenon—0.2 mPa. All products (for control and experimental groups) were encapsulated in soft gelatin capsules weighing 0.5 g. All volunteers took 4 capsules per day, 2 in the morning and 2 in the evening, on an empty stomach. Omega-3 index tests were again taken after 1 month.

[3] = when injected into the body; cited from earlier work

Q: For `[Kr]` [krypton], which “TAG levels versus control” value [1] is on record?
A: significant increase

Q: And the “effect on Omega-3 index” value [2]?
A: dose-dependent increase

Q: For `[Xe]` [xenon], which “time to complete elimination of the gas from the body” value [3] is on record?
A: ≤ 4 h

Q: What about the “TAG levels versus control” value [1] of the same molecule?
A: significant increase

Q: What about the “effect on Omega-3 index” value [2] of the same molecule?
A: dose-dependent increase
